The results in this text go back to patent US4324728A, “Compound nanaomycin A and derivatives thereof and a process for producing the same” (The Kitasato Institute, priority 1976, dated 1982).

The test system of data set [1] is Trichophyton pedis 804. The experiment in a line: Minimal inhibitory concentration (agar). In kind it is cell-based. Conditions: Trichophyton pedis, 804, 96 h, pH 6.4, potato agar, pH 6.4, 4 days, 27° C.; read-out: MIC.
Data set [2] relates to Escherichia coli NIHJ (JC-2). The experiment in a line: Minimal inhibitory concentration (agar). Type of data set: cell-based. The following applies: 48 h, pH 7, nutrient agar, pH 7.0, 2 days, 37° C. As to the method:
(§1) Medium N nutrient agar (pH 7.0, 2 days, 37° C.)
(§2) MIC Minimal inhibitory concentration
(§3) N nutrient agar (pH 7.0, 2 days, 37° C.)

Data set [3] deals with Trichophyton violaceum. The experiment in a line: Minimal inhibitory concentration (agar). Type of data set: cell-based. The following applies: Trichophyton violaceum, 96 h, pH 6.4, potato agar, pH 6.4, 4 days, 27° C.; read-out: MIC.
Data set [4] has as its system Trichophyton purpureum. The experiment in a line: Minimal inhibitory concentration (agar). In kind it is cell-based. The following applies: 96 h, pH 6.4, potato agar, pH 6.4, 4 days, 27° C., read-out: MIC.
For data set [5], the system named is Piricularia oryzae. The experiment in a line: microbe, parasite or virus in culture. In kind it is cell-based. The following applies: 96 h, pH 6.4, potato agar, pH 6.4, 4 days, 27° C.
Data set [6] deals with fungi. Briefly: Antifungal activity (in words). In kind it is cell-based.
A short description of data set [7]: Acute toxicity in mice. Conditions: intra-penetrial injection.
Data set [8] concerns Mycoplasma iners. The experiment in a line: Minimal inhibitory concentration (PPLO agar). In kind it is cell-based. The following applies: Mycoplasmopsis iners, 192 h; Hokken PPLO agar, pH 7.8, 8 days, 37° C. How it is done:
(§4) H Hokken PPLO agar (pH 7.8, 8 days, 37° C.)
as §2
(§5) E Eiken PPLO agar (pH 7.8, 8 days, 37° C.)

Data set [9] relates to Mycoplasma gallinarum. The experiment in a line: Minimal inhibitory concentration (PPLO agar). Type of data set: cell-based. Conditions: Mycoplasmopsis gallinarum, 192 h, Hokken PPLO agar, pH 7.8, 8 days, 37° C. How it is done:
as §4, §2, §5

Data set [10] has as its system Mycoplasma gallisepticum. The experiment in a line: Growth inhibition (text summary of Table 1). Conditions: Mycoplasmoides gallisepticum, 192 h; read-out: concentration at which growth is inhibited. Type of data set: cell-based. As to the method:
as §4, §5

The subject of data set [11] is Mycoplasma gallisepticum. The experiment in a line: Therapeutic effect on chronic respiratory disease of chickens. In kind it is in vivo.
Data set [12] concerns Escherichia coli NIHJ. The experiment in a line: Minimal inhibitory concentration (agar). In kind it is cell-based. The following applies: 48 h, nutrient agar, pH 7.0, 2 days, 37° C.
For data set [13], the system named is Acholeplasma laidlawii (A) PG8. The experiment in a line: Minimal inhibitory concentration (PPLO agar). Type of data set: cell-based. Conditions: pH 7.8, 8 days, 37° C. As to the method:
as §4, §5, §2

The test system of data set [14] is Mycoplasma gallisepticum S-6. Briefly: Minimal inhibitory concentration (PPLO agar). Type of data set: cell-based. The following applies: Mycoplasmoides gallisepticum, S6, 192 h, pH 7.8, 8 days, 37° C. How it is done: as §4, §5, §2
In data set [15] the test system is Staphylococcus aureus. Briefly: Growth inhibition (text summary of Table 1). In kind it is cell-based. Conditions: 48 h, read-out: concentration at which growth is inhibited. As to the method: as §1
Data set [16] deals with Mycoplasma pneumoniae. The experiment in a line: Minimal inhibitory concentration (PPLO agar). In kind it is cell-based. The following applies: 192 h, Eiken PPLO agar, pH 7.8, 8 days, 37° C.
Data set [17] deals with Tricophyton metagorphytes. The experiment in a line: Treatment of dermatomycosis at the back of guinea pigs. In kind it is in vivo. Conditions: 0.01-1% solution in propyleneglycol-ethanol (3:1 v/v), once daily for 8 days.
Data set [18] has as its system Pseudomonas aeruginosa. The experiment in a line: Minimal inhibitory concentration (agar). In kind it is cell-based. The following applies: 48 h, nutrient agar, pH 7.0, 2 days, 37° C. As to the method:
as §1, §2, §3

In data set [19] the test system is Shigella flexneri. The experiment in a line: Minimal inhibitory concentration (agar). In kind it is cell-based. Conditions: 48 h, nutrient agar, pH 7.0, 2 days, 37° C. How it is done:
as §1, §2, §3

In data set [20] the test system is Aspergillus niger. The experiment in a line: Minimal inhibitory concentration (agar). Type of data set: cell-based. Conditions: Aspergillus niger, 96 h; potato agar, pH 6.4, 4 days, 27° C.; read-out: MIC. As to the method: Minimal inhibitory concentration was assayed by agar dilution method
(potato agar, pH 6.4, 27° C., 4 days).
P potato agar (pH 6.4, 4 days, 27° C.)

Data set [21] relates to fungi belonging to the genus Trichophyton. Briefly: Growth inhibition (text summary of Table 1). Conditions: 96 h, some fungi of the genus, read-out: concentration at which growth is inhibited. Type of data set: cell-based. As to the method:
| P potato agar (pH 6.4, 4 days, 27° C.)

Values after ≈ are worked out from the molar mass of the structure shown. Read-outs that look alike come from different tables or passages of the source.

As for `CC(=O)Oc1cccc2c1C(=O)C1=C(CC(CC(=O)O)OC1C)C2=O` (centres unmarked) [Acetylnanaomycin A, acetylnanaomycin A], the MIC in data set [1] is 0.8 µg/mL (≈ 2.32 µM); in [2], above 100 µg/mL; in data set [3], 0.8 µg/mL (≈ 2.32 µM); in data set [4], 1.6 µg/mL (≈ 4.65 µM); in data set [5], 0.8 µg/mL (≈ 2.32 µM). Further, the activity against fungi result in [6] is “as strong activity against fungi and mycoplasmas as nanaomycin A”. Further, in [7], the “acute toxicity compared with nanaomycin A” value is listed as “lower than that of nanaomycin A”.
`CC1OC(CC(=O)O)CC2=C1C(=O)c1c(O)cccc1C2=O` (centres unmarked) [Nanaomycin A, nanaomycin A]: the MIC in data set [8] is 3.12 µg/mL (≈ 10.3 µM); in data set [9], 1.56 µg/mL (≈ 5.16 µM); in data set [10], at most 0.1 µg/mL; in [12], 31.3 µg/mL (≈ 104 µM); in [13] (Acholeplasma laidlawii, 192 h, Hokken PPLO agar, read-out: MIC), above 25 µg/mL; in data set [13] (Eiken PPLO agar), above 25 µg/mL. The MIC in data set [14] (pH 7.8, Hokken PPLO agar) is below 0.013 µg/mL; in data set [14] (Eiken PPLO agar, read-out: MIC) it was 0.1 µg/mL (≈ 0.331 µM); in [15], 2 to 8 µg/mL (≈ 6.62 to 26.5 µM); in data set [16] it was 0.013 µg/mL (≈ 0.043 µM); in [18] it was 500 µg/mL (≈ 1650 µM); in data set [19], 31.3 µg/mL (≈ 104 µM). Also, the MIC in data set [20] was 25 µg/mL (≈ 82.7 µM); in data set [21] it was at most 3.1 µg/mL. Further, the “therapeutic effect on chronic respiratory disease” value in data set [11] was “exhibits therapeutic effect”. The “therapeutic effect on erythema and scales” value in data set [17] was “excellent therapeutic effect”.
